# Publication PMC8556396, “Statin-mediated disruption of Rho GTPase prenylation and activity inhibits respiratory syncytial virus infection” (Communications Biology, 2021)
# Values joined by “and” are separate entries in the source; they are usually repeats but may differ in a detail not shown here. Identical values can stand only once.
# Experiments:
# RSV A2 = test: Immunofluorescence staining and microscopy of RSV F and N; settings: for RSV F intensity (a.u.): Fig 5D; for RSV N intensity (a.u.): Fig 5E;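 as to RSV F intensity (a.u.): fluorescence normalized to total nuclear count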;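 as to RSV N intensity (a.u.): fluorescence normalized to total nuclear count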
# Procedure: HEp-2 cells were seeded to No. 1 glass coverslips (1014355117NR1, Thermo Fisher Scientific) for high-resolution confocal microscopy, or black, flat, microclear-bottom 96-well plates (655096, Greiner Bio-One) for high-throughput quantification of RSV F and N immunofluorescence. Cells were infected with RSV A2 (MOI 0.5). At 48 h p.i., cells were fixed in 4% paraformaldehyde for 30 min and permeabilized with 0.3% Triton X-100 for 10 min at room temperature. F and N proteins were probed using mouse anti-RSV F (RSV3216) and mouse anti-RSV N (RSV3132) mAbs (Bio-Rad Antibodies) diluted 1:500 in PBS + 0.1% Tween-20 (PBST), or mouse anti-RSV F mAb Alexa Fluor 488 conjugate (Millipore Sigma, 133/1H) diluted 1:200 in PBST over a 1-h incubation at room temperature. This was followed by detection with secondary anti-mouse Fab fragments conjugated to Alexa Fluor 488 (4408) or 647 (4410) (Cell Signaling Technology) diluted 1:1000 in PBST over a 1-h incubation at room temperature. Fluorescent images were acquired using either the Cellomics ArrayScan VTI HCS Reader at ×10 magnification (for quantification) or Olympus IX81 Spinning Disk Confocal microscope at ×60 magnification with oil immersion (for high-resolution images). F and N immunofluorescence was quantified in CellProfiler and normalized to total nuclear count.
# [1] = in vivo; cited from earlier work
# [2] = FTI-276 0.5 uM, perillyl alcohol 0.5 mM
# [3] = FTI-276 1 uM, perillyl alcohol 1 mM
compound,measurement,setting,value
"C=C(C)[C@@H]1CC=C(CO)CC1 [Perillyl alcohol, perillyl alcohol]",RSV F intensity (a.u.),RSV A2; [2],4.838 a.u. and 4.168 a.u. and 3.383 a.u.
same,RSV F intensity (a.u.),RSV A2; [3],5.114 a.u. and 3.157 a.u.
same,RSV F intensity (a.u.),"RSV A2; FTI-276 5 uM, perillyl alcohol 5 mM",0.705 a.u. and 0.8175 a.u. and 0.8487 a.u.
same,RSV N intensity (a.u.),RSV A2; [2],6.098 a.u. and 3.977 a.u. and 5.388 a.u. and 3.797 a.u.
same,RSV N intensity (a.u.),RSV A2; [3],3.037 a.u. and 4.82 a.u. and 2.725 a.u. and 4.829 a.u.
same,effect of prenyltransferase inhibitor on RSV A2 infection,"RSV A2; HEp-2, F and N immunofluorescence",dose-dependently reduced RSV A2 infection
same,reduction of N protein intensity,"RSV A2; relative to DMSO, 48 h p.i., PA 5.0 mM, EHT 1864 20.0 µM",82.7 ± 3.3%
same,tolerability,[1],well-tolerated in humans
